Measured values published in patent US20220356170A1, “SREBP INHIBITOR COMPRISING A THIOPHENE CENTRAL RING” (Capulus Therapeutics, LLC, priority 2019, published 2022).

Columns and labels:
Experiment in all cases: Cancer cell growth inhibition, Sulforhodamine B
Type in all cases: cell-based
MT3 = settings: MT-3, 72 h, MT3 (breast)
Procedure: (§1) The ability of select compounds to inhibit cell growth in various cancer cell lines are evaluated. […] The cell lines shown in Table 5 have reduced growth by at least 50% at 10 uM or lower over 72 hr treatment in growth media. The cell lines shown in Table 6 have reduced growth by at least 50% with an IC50 greater than 10 uM.
(§2) Six 10-fold compound dilutions are prepared in DMSO (e.g. 10 mM, 1 mM, 100 uM, 10 uM, 1 uM, and 0.1 uM). Single data points are acquired for each concentration. The final concentration of DMSO is 0.1%. The duration of the treatment is 72 hr. Growth inhibition is measured using Sulforhodamine B in a protein staining assay. Activity of the agents is determined by evaluation the following parameters: IC50, GI50, IC10, TGI, LC50, IC90, and GI90 (where these values can be calculated).

SKMEL5 = settings: Homo sapiens, SK-MEL-5, 72 h, SKMEL5 (skin)
Procedure: as §1, §2

JAR = JAR (placenta), 72 hr; Responder Cell Lines
Procedure: as §1, §2

HCT15 = settings: Homo sapiens, HCT-15; HCT15 (colon), 72 hr; Responder Cell Lines
Procedure: as §1, §2

NCIH82 = settings: Homo sapiens, NCI-H82, 72 h, NCIH82 (lung)
Procedure: as §1, §2

MDAMB436 = settings: Homo sapiens, MDA-MB-436; MDAMB436 (breast), 72 hr; Non-Responder Cell Lines with IC50 >10 uM or Not Determined
Procedure: as §1, §2

22RV1 = settings: Homo sapiens; 22RV1 (prostate), 72 hr; Responder Cell Lines
Procedure: as §1, §2

A204 = settings: Homo sapiens; A204 (muscle), 72 hr; Responder Cell Lines
Procedure: as §1, §2

HT1080 = settings: Homo sapiens, HT-1080; HT1080 (connective tissue), 72 hr; Responder Cell Lines
Procedure: as §1, §2

MINO = settings: Homo sapiens, 72 h, MINO (hematological)
Procedure: as §1, §2

SKOV3 = settings: Homo sapiens, SK-OV-3; SKOV3 (ovary), 72 hr; Non-Responder Cell Lines with IC50 >10 uM or Not Determined
Procedure: as §1, §2

COLO205 = settings: Homo sapiens, COLO 205; COLO205 (colon), 72 hr; Responder Cell Lines
Procedure: as §1, §2

HL-60 = settings: Homo sapiens; HL-60 (hematological), 72 hr; Responder Cell Lines
Procedure: as §1, §2

JIMT1 = settings: Homo sapiens, JIMT-1; JIMT1 (breast), 72 hr; Responder Cell Lines
Procedure: as §1, §2

SKHEP1 = settings: Homo sapiens, SK-HEP1, 72 h, SKHEP1 (liver)
Procedure: as §1, §2

HCT116 = settings: Homo sapiens, HCT-116; HCT116 (colon), 72 hr; Responder Cell Lines
Procedure: as §1, §2

SF268 = settings: Homo sapiens, SF-268; SF268 (brain), 72 hr; Non-Responder Cell Lines with IC50 >10 uM or Not Determined
Procedure: as §1, §2

MHHES1 = settings: Homo sapiens, MHH-ES-1, 72 h
Procedure: as §1, §2

K-562 = settings: Homo sapiens, K562; K-562 (hematological), 72 hr; Responder Cell Lines
Procedure: as §1, §2

SW620 = settings: Homo sapiens, SW-620; SW620 (colon), 72 hr; Non-Responder Cell Lines with IC50 >10 uM or Not Determined
Procedure: as §1, §2

RD = settings: Homo sapiens; RD (muscle), 72 hr; Non-Responder Cell Lines with IC50 >10 uM or Not Determined
Procedure: as §1, §2

HEPG2 = settings: Homo sapiens; HEPG2 (liver), 72 hr; Responder Cell Lines
Procedure: as §1, §2

U87MG = settings: Homo sapiens, U-87 MG; U87MG (brain), 72 hr; Non-Responder Cell Lines with IC50 >10 uM or Not Determined
Procedure: as §1, §2

MV4-11 = settings: Homo sapiens, MV4-11, 72 h, MV4-11 (hematological)
Procedure: as §1, §2

LOVO = settings: Homo sapiens; LOVO (colon), 72 hr; Responder Cell Lines
Procedure: as §1, §2

[1] = Non-Responder Cell Lines with IC50 >10 uM or Not Determined

In the case of `CC(C)(O)c1cc(-c2csc(-c3ccc(C(=O)N4CCC(O)CC4)cc3Cl)c2)ccn1` [Compound 1, (3-chloro-4-(4-(2-(2-hydroxypropan-2-yl)pyridin-4-yl)thiophen-2-yl)phenyl)(4-hydroxypiperidin-1-yl)methanone], the IC50 (MT3; [1]) is reported as > 10 µM, the IC50 (MT3; Responder Cell Lines) is reported as < 10 µM and the IC50 (SKMEL5; [1]) is reported as > 10 µM. The IC50 (SKMEL5; Responder Cell Lines) was < 10 µM, the IC50 (JAR) was < 10 µM and the IC50 (HCT15) was < 10 µM. The IC50 (NCIH82; [1]) was > 10 µM, the IC50 (NCIH82; Responder Cell Lines) was < 10 µM and the IC50 (MDAMB436) was > 10 µM. For the same molecule, the IC50 (22RV1) was < 10 µM, the IC50 (A204) was < 10 µM and the IC50 (HT1080) was < 10 µM. The IC50 (MINO; [1]) was > 10 µM, the IC50 (MINO; Responder Cell Lines) was < 10 µM and the IC50 (SKOV3) was > 10 µM. For the same molecule, the IC50 (COLO205) was < 10 µM, the IC50 (HL-60) was < 10 µM and the IC50 (JIMT1) was < 10 µM. The IC50 (SKHEP1; [1]) was > 10 µM, the IC50 (SKHEP1; Responder Cell Lines) was < 10 µM and the IC50 (HCT116) was < 10 µM. The IC50 (SF268) was > 10 µM, the IC50 (MHHES1; MHHES1 (bone), Non-Responder Cell Lines with IC50 >10 uM or Not Determined) was > 10 µM and the IC50 (MHHES1; MHHESI (bone), Responder Cell Lines) was < 10 µM. For the same molecule, the IC50 (K-562) was < 10 µM, the IC50 (SW620) was > 10 µM and the IC50 (RD) was > 10 µM. For the same molecule, the IC50 (HEPG2) was < 10 µM, the IC50 (U87MG) was > 10 µM and the IC50 (MV4-11; [1]) was > 10 µM. The IC50 (MV4-11; Responder Cell Lines) was < 10 µM and the IC50 (LOVO) was < 10 µM.
